Data reported in patent US10758609B2, “Cross-reactive T-cell epitopes of HIV, SIV, and FIV for vaccines in humans and cats” (priority 2015, dated 2020).

How the values were obtained:
PBMC from HIV^+ subjects = experiment: IFNγ ELISpot of PBMC from HIV+ human subjects; assay type: cell-based
Experimental: (§1) The overlapping peptide pools of FIV and HIV-1 structural and enzyme proteins were used to stimulate the […] (PBMC) and the T cells from HIV^+ subjects as previously described for epitope mapping of HIV-1 and FIV p24 and reverse transcriptase (RT) (Sanou et al., 2013; Roff et al., 2015). The individual peptides in those peptide pools with positive responses to either interferon-γ (IFNγ) production and/or T-cell proliferation were determined with IFNγ ELISpot analysis and CFSE-based CD3^+CD4^+ and CD3^+CD8^+ T-cell proliferation analyses followed by the FACS-based intracellular staining (ICS) for cytolysin (perforin) and cytotoxin (granzyme A [GrzA] and GrzB) (Sanou et al., 2013; Roff et al., 2015). Besides viral p24 and RT proteins, the identical approach was used to identify anti-HIV/FIV T-cell epitopes on viral matrix (MA), nucleocapsid (NC), protease (PR), RNAase, integrase (IN), surface envelope (SU Env), and transmembrane envelope (TM Env) (FIG. 12).
(§2) Since our goal is to develop HIV vaccine for human use, the HIV peptides (Table 10) counterpart of the cross-reactive FIV peptides shown in Table 9 were tested with PBMC and T cells from HIV^+ subjects. The immune functions analyzed were human IFNγ production by ELISpot, cytolysin/cytotoxin production by ICS, and CFSE-based proliferation of CD3^+CD4^+ and CD3^+CD8^+ T cells from HIV^+ subjects (Table 10, the first set of results). In addition, the Los Alamos National Laboratories (LANL) database was used to identify the HLA allele(s) of the HIV epitope sequence with CTL activity that can exist within the sequence of the conserved counterpart HIV peptide (Table 9, LANL CTL). The bold HLA class-I supertypes and the bold 2-digit alleles are those on the “Optimal CD8^+ CTL Epitopes” list and those without bold are alleles for potential CTL epitope. […] The HLA class II such as HLA-DRB1 has yet to be fully classified into supertypes, and therefore the 4-digit resolution nomenclatures for the HLA-DRB1 alleles are shown.
In addition, these peptides were also analyzed for IFNγ production, CD4^+ and CD8^+ T-cell proliferation, and cytolysin (perforin) and cytotoxin (granzyme A (GrzA) and GrzB)) mRNA production of PBMC or T cells from 8-30 HIV^+ human subjects. The frequency of responders is based on the individual responses of the vaccinated cats or HIV^+ human subjects after subtraction of the average of the responses of PBMC or T cells from 6-8 non-vaccinated cats or 8-20 HIV-negative human subjects.
(§3) The threshold for positive IFNγ and IL2 ELISpot responses is ≥50 spot-forming units (SFU) per 10^6 PBMC. The threshold for CFSE-based CD4^+ and CD8^+ T-cell proliferation is ≥2% CD4^+ T-cell CFSE^low or CD8^+ T-cell CFSE^low. The threshold of FACS-based intracellular cytokine staining (ICS) is ≥0.2%. […] The nine FIV peptides in black were used in the current MAP vaccine trial, whereas the 13 peptides in blue were not used. […] The MAPs and their corresponding peptide(s) were also tested for their ability to enhance or suppress in vitro FIV infection of feline PBMC (E/S of peptides and E/S of MAP).
(§4) The counterpart HIV-1 peptides of the FIV peptides were also tested for immunogenicity using PBMC and T cells from HIV^+ human subjects. […] The HRT7-1 and HRT7-2 were also tested with cells from HIV^+ subjects on ART. The threshold for positive IFNγ ELISpot response is ≥75 spot-forming units (SFU) per 10^6 PBMC. The threshold for CFSE-based CD4^+ (CD4^+ T) and CD8^+ (CD8^+ T) T-cell proliferation is ≥2% CD4^+ T-cell CFSE^low or CD8^+ T-cell CFSE^low. The threshold of intracellular cytokine staining (ICS) of FACS-based cytolysin (perforin) and cytotoxins (granzymes A and B) in CD4^+ T cells (CyCD4) and CD8^+ T cells (CyCD8) is ≥0.2%.

[1] = system: CD3^+CD8^+ T cells from HIV^+ subjects; experiment: CFSE-based CD3+CD8+ T-cell proliferation, HIV+ human subjects; conditions: for CD8, frequency of responders: FIV epitope peptide; for CD8^+ T (T-cell proliferation), frequency of responders: FIV peptides
Experimental: as §1, §2, §3
as §4, with “≥0.2%. […] The nine HIV-1 peptides in black are the counterpart FIV peptides used in the current MAP vaccine trial, whereas the 13 peptides in blue were not.” for “≥0.2%.”

Sequence	IFNγ, frequency of responders (PBMC from HIV^+ subjects; FIV epitope peptide)	IFNγ, frequency of responders (PBMC from HIV^+ subjects; FIV peptides)	CD8, frequency of responders [1]	CD8^+ T (T-cell proliferation), frequency of responders [1]
KKKSGKWRMLIDFRV [FRT3-3]	++++ (>54% (++++))	++++ (>54% (++++))	++++ (>54% (++++))	++++ (>54% (++++))
KFLYTAFAMQELR [FTM4-3]	— (0%-1.4% (—))	— (0%-1.4%(—))	— (0%-1.4% (—))	— (0%-1.4%(—))
AGLRQSLEQYQVVKQ [FSU4]	— (0%-1.4% (—))	— (0%-1.4%(—))	— (0%-1.4% (—))	— (0%-1.4%(—))
WRMLIDFRVLNKL [FRT3-4]	— (0%-1.4% (—))	— (0%-1.4%(—))	++ (26%-40% (++))	++ (25.1%-40% (++))
LLLILCLPTLVDCIRN [FTM8(20)]	— (0%-1.4% (—))	— (0%-1.4%(—))	++++ (>54% (++++))	++++ (>54% (++++))
PTDMATLIMAAPGCA [Fp4-3]	— (0%-1.4% (—))	— (0%-1.4%(—))	— (0%-1.4% (—))	— (0%-1.4%(—))
